Several values for one entry are separate records, joined by “and”; a condition that tells them apart may be missing. Equal values may be shown once. Inconclusive results and toxic doses are left out.
Test system: P388 leukemia ip, CD2F1 mice, survival T/C
Test: NCI In Vivo Anticancer Drug Screen. Data for tumor model P388 Leukemia (intraperitoneal) in CD2F1 (CDF1) mice
Settings: endpoint: median survival time, higher = longer survival
How it was run: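 Mice carrying the transplanted tumor received test compound or vehicle. Survival was recorded in each group, and the value is the treated-group measurement divided by that of the vehicle-treated control group.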

[1] = dose: 25.0 mg/kg/injection, schedule: Q01DX005 (ip), vehicle: saline with Tween-80
[2] = dose: 100.0 mg/kg/injection, schedule: Q01DX005 (ip), vehicle: saline with Tween-80
[3] = dose: 50.0 mg/kg/injection, schedule: Q01DX005 (ip), vehicle: saline with Tween-80
[4] = dose: 200.0 mg/kg/injection, schedule: Q01DX005 (ip), vehicle: saline with Tween-80
[5] = dose: 60.0 mg/kg/injection, schedule: Q01DX005 (ip), vehicle: saline with Tween-80
[6] = dose: 120.0 mg/kg/injection, schedule: Q01DX005 (ip), vehicle: saline with Tween-80
[7] = dose: 240.0 mg/kg/injection, schedule: Q01DX005 (ip), vehicle: saline with Tween-80

## CC(=O)/C(=C\c1ccc(Cl)c(Cl)c1)C(=O)CCN(C)C
dose: 12.5 mg/kg/injection, schedule: Q01DX005 (ip), vehicle: saline
  T/C: 110 % of control and 117 % of control
[1]
  T/C: 117 % of control
dose: 25.0 mg/kg/injection, schedule: Q01DX005 (ip), vehicle: saline
  T/C: 100 % of control and 107 % of control
dose: 50.0 mg/kg/injection, schedule: Q01DX005 (ip), vehicle: saline
  T/C: 110 % of control and 111 % of control
[2]
  T/C: 151 % of control

## COc1cc2c(cc1C(C)c1ccc(OC(C)C)cc1)OCO2 (stereo not drawn)
[1]
  T/C: 103 % of control
[3]
  T/C: 98 % of control
[2]
  T/C: 100 % of control
[4]
  T/C: 98 % of control

## O=C(NC(CCS(=O)(=O)NCc1ccc(S(=O)(=O)F)cc1)C(=O)OCc1ccccc1)OCc1ccccc1 (stereo not drawn)
dose: 12.5 mg/kg/injection, schedule: Q01DX009 (ip), vehicle: other
  T/C: 90 % of control
dose: 25.0 mg/kg/injection, schedule: Q01DX009 (ip), vehicle: other
  T/C: 89 % of control
dose: 100.0 mg/kg/injection, schedule: Q01DX009 (ip), vehicle: other
  T/C: 102 % of control
dose: 200.0 mg/kg/injection, schedule: Q01DX009 (ip), vehicle: other
  T/C: 98 % of control

## COc1ccc(/C(C)=N/OC(=O)c2c(-c3ccccc3Cl)noc2C)cc1CN1CCOCC1
dose: 50.0 mg/kg/injection, schedule: Q01DX009 (ip), vehicle: saline
  T/C: 94 % of control
dose: 100.0 mg/kg/injection, schedule: Q01DX009 (ip), vehicle: saline
  T/C: 97 % of control
dose: 200.0 mg/kg/injection, schedule: Q01DX009 (ip), vehicle: saline
  T/C: 97 % of control

## CC(=O)c1c(O)ccc2nc3ccccc3nc12
dose: 50.0 mg/kg/injection, schedule: Q01DX009 (ip), vehicle: suspension in saline
  T/C: 105 % of control
dose: 100.0 mg/kg/injection, schedule: Q01DX009 (ip), vehicle: suspension in saline
  T/C: 111 % of control
dose: 200.0 mg/kg/injection, schedule: Q01DX009 (ip), vehicle: suspension in saline
  T/C: 93 % of control

## COc1cccc2c1C(=O)c1c(O)c3c(c(O)c1C2=O)CC(O)(/C(C)=N/NC(=O)CCCCCC(=O)N/N=C(\C)C1(O)Cc2c(O)c4c(c(O)c2C(OC2CC(N)C(O)C(C)O2)C1)C(=O)c1c(OC)cccc1C4=O)CC3OC1CC(N)C(O)C(C)O1 (stereo not drawn)
dose: 0.78 mg/kg/injection, schedule: Q01DX009 (ip), vehicle: water
  T/C: 158 % of control
dose: 1.56 mg/kg/injection, schedule: Q01DX009 (ip), vehicle: water
  T/C: 157 % of control and 163 % of control
dose: 3.13 mg/kg/injection, schedule: Q01DX009 (ip), vehicle: water
  T/C: 153 % of control and 154 % of control
dose: 6.25 mg/kg/injection, schedule: Q01DX009 (ip), vehicle: water
  T/C: 200 % of control and 202 % of control
dose: 12.5 mg/kg/injection, schedule: Q01DX009 (ip), vehicle: water
  T/C: 88 % of control and 93 % of control

## O=C(Nc1ccc(Cl)cc1)Nc1nnc2ncc3c(n12)CCCCCCCCCC3
[5]
  T/C: 102 % of control
[6]
  T/C: 87 % of control

## O=N[O-].O=N[O-].[NH2-].[NH2-].[NH2-].[NH2-].[Ni]
dose: 6.25 mg/kg/injection, schedule: Q01DX009 (ip), vehicle: saline
  T/C: 100 % of control
dose: 12.5 mg/kg/injection, schedule: Q01DX009 (ip), vehicle: saline
  T/C: 105 % of control

## CCOC(=O)C(=CC=C(C(=O)OCC)C(=O)OCC)C(=O)OCC
dose: 100.0 mg/kg/injection, schedule: Q04DX002 (ip), vehicle: saline with Tween-80
  T/C: 112 % of control
dose: 200.0 mg/kg/injection, schedule: Q04DX002 (ip), vehicle: saline with Tween-80
  T/C: 113 % of control
dose: 400.0 mg/kg/injection, schedule: Q04DX002 (ip), vehicle: saline with Tween-80
  T/C: 115 % of control

## CC1=C(C)C2C3C(=O)NC(=O)C3C1C1C3C(=O)NC(=O)C3C21 (stereo not drawn)
dose: 60.0 mg/kg/injection, schedule: Q01DX005 (ip), vehicle: saline
  T/C: 101 % of control
dose: 120.0 mg/kg/injection, schedule: Q01DX005 (ip), vehicle: saline
  T/C: 101 % of control
dose: 240.0 mg/kg/injection, schedule: Q01DX005 (ip), vehicle: saline
  T/C: 100 % of control

## c1nc(Sc2ncnc3nc[nH]c23)c2[nH]cnc2n1
dose: 180.0 mg/kg/injection, schedule: Q01DX009 (ip), vehicle: Klucel (hydroxypropylcellulose) (HPC)
  T/C: 100 % of control
dose: 266.0 mg/kg/injection, schedule: Q01DX009 (ip), vehicle: Klucel (hydroxypropylcellulose) (HPC)
  T/C: 100 % of control
dose: 400.0 mg/kg/injection, schedule: Q01DX009 (ip), vehicle: Klucel (hydroxypropylcellulose) (HPC)
  T/C: 100 % of control

## C(=N\Nc1nnc(-c2ccccc2)c(-c2ccccc2)n1)/c1cccnc1
dose: 12.5 mg/kg/injection, schedule: Q01DX005 (ip), vehicle: saline with Tween-80
  T/C: 86 % of control
[1]
  T/C: 96 % of control
[3]
  T/C: 89 % of control
[4]
  T/C: 90 % of control

## Cc1ccc(S(C)(=N)=O)c(N)c1 (stereo not drawn)
dose: 50.0 mg/kg/injection, schedule: Q01DX005 (ip), vehicle: acetone
  T/C: 99 % of control
dose: 100.0 mg/kg/injection, schedule: Q01DX005 (ip), vehicle: acetone
  T/C: 99 % of control
dose: 200.0 mg/kg/injection, schedule: Q01DX005 (ip), vehicle: acetone
  T/C: 100 % of control

## Cc1cc(C)nc(NS(=O)(=O)c2ccc(NC(=O)c3cccnc3Nc3cccc(Cl)c3)cc2)n1
[5]
  T/C: 105 % of control
[6]
  T/C: 115 % of control
[7]
  T/C: 112 % of control

## CCOC(=O)c1cnc[nH]c1=O
dose: 25.0 mg/kg/injection, schedule: Q04DX003 (ip), vehicle: saline with Tween-80
  T/C: 99 % of control
dose: 50.0 mg/kg/injection, schedule: Q04DX003 (ip), vehicle: saline with Tween-80
  T/C: 100 % of control
dose: 100.0 mg/kg/injection, schedule: Q04DX003 (ip), vehicle: saline with Tween-80
  T/C: 97 % of control
dose: 200.0 mg/kg/injection, schedule: Q04DX003 (ip), vehicle: saline with Tween-80
  T/C: 97 % of control

## NNc1ncnc2cccc(Cl)c12
[5]
  T/C: 94 % of control
[6]
  T/C: 98 % of control
[7]
  T/C: 92 % of control

## CCCCCCCCCCCC(=O)C(=O)c1ccc(O)cc1O
dose: 50.0 mg/kg/injection, schedule: Q01DX009 (ip), vehicle: Klucel (hydroxypropylcellulose) (HPC)
  T/C: 110 % of control
dose: 100.0 mg/kg/injection, schedule: Q01DX009 (ip), vehicle: Klucel (hydroxypropylcellulose) (HPC)
  T/C: 107 % of control
dose: 200.0 mg/kg/injection, schedule: Q01DX009 (ip), vehicle: Klucel (hydroxypropylcellulose) (HPC)
  T/C: 109 % of control

## COc1cccc2c1C(=O)c1c(O)c3c(c(O)c1C2=O)CC(O)(C(O)CO)CC3OC1CC(N2CCOCC2C#N)C(O)C(C)O1 (stereo not drawn)
dose: 0.2 mg/kg/injection, schedule: Q04DX003 (ip), vehicle: water
  T/C: 176 % of control
dose: 0.8 mg/kg/injection, schedule: Q04DX003 (ip), vehicle: water
  T/C: 89 % of control
dose: 6.25 micrograms/kg/injection, schedule: Q04DX003 (ip), vehicle: water
  T/C: 101 % of control
dose: 12.5 micrograms/kg/injection, schedule: Q04DX003 (ip), vehicle: water
  T/C: 107 % of control and 113 % of control
dose: 25.0 micrograms/kg/injection, schedule: Q04DX003 (ip), vehicle: water
  T/C: 106 % of control and 117 % of control
dose: 50.0 micrograms/kg/injection, schedule: Q04DX003 (ip), vehicle: water
  T/C: 119 % of control and 120 % of control
dose: 100.0 micrograms/kg/injection, schedule: Q04DX003 (ip), vehicle: water
  T/C: 124 % of control
dose: 200.0 micrograms/kg/injection, schedule: Q04DX003 (ip), vehicle: water
  T/C: 124 % of control

## CN(C)C1C(O)C2Oc3c(cc(O)c4c3C(=O)c3cc5c(c(O)c3C4=O)C(OCCBr)CC(C)(O)C5)C(C)(O2)C1O (stereo not drawn)
dose: 2.0 mg/kg/injection, schedule: Q01DX009 (ip), vehicle: other
  T/C: 150 % of control
dose: 4.0 mg/kg/injection, schedule: Q01DX009 (ip), vehicle: other
  T/C: 154 % of control
dose: 8.0 mg/kg/injection, schedule: Q01DX009 (ip), vehicle: other
  T/C: 157 % of control
dose: 16.0 mg/kg/injection, schedule: Q01DX009 (ip), vehicle: other
  T/C: 159 % of control

## CCn1c2ccccc2c2cc(NC(=O)N(CCCl)N=O)ccc21
dose: 6.25 mg/kg/injection, schedule: Q01DX009 (ip), vehicle: saline with Tween-80
  T/C: 119 % of control
dose: 12.5 mg/kg/injection, schedule: Q01DX009 (ip), vehicle: saline with Tween-80
  T/C: 122 % of control
dose: 100.0 mg/kg/injection, schedule: Q01DX009 (ip), vehicle: saline with Tween-80
  T/C: 189 % of control

## Cc1ccc(N=Nc2c(O)n(-c3ccccc3C)c(=S)n(-c3ccccc3Cl)c2=O)cc1
dose: 100.0 mg/kg/injection, schedule: Q01DX001 (ip), vehicle: Klucel (hydroxypropylcellulose) (HPC)
  T/C: 101 % of control
dose: 200.0 mg/kg/injection, schedule: Q01DX001 (ip), vehicle: Klucel (hydroxypropylcellulose) (HPC)
  T/C: 103 % of control
dose: 400.0 mg/kg/injection, schedule: Q01DX001 (ip), vehicle: Klucel (hydroxypropylcellulose) (HPC)
  T/C: 104 % of control

## CC(C(=O)O)c1cn(Cc2ccccc2)c2ccccc12 (stereo not drawn)
[5]
  T/C: 100 % of control
[6]
  T/C: 102 % of control
[7]
  T/C: 96 % of control
